Experiments:
Type in all cases: in vivo
Kochia (Kochia scoparia) [1] = experiment: Test A preemergence; settings: Bassia scoparia, pre-emergence, 240 h, 0 to 100 scale where 0 is no effect and 100 is complete control, read-out: Kochia plant response rating
Procedure, shortened: (§1)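 Preemergence soil spray on seeded pots or post-emergence spray on 1–2 leaf plants, in loam–sand blend. Greenhouse ~10 d. Visual rating 0–100 against untreated plants.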

[2] = tested on: barnyardgrass (Echinochloa crus-galli); experiment: Test A preemergence; settings: Echinochloa crus-galli, pre-emergence, 240 h, 0 to 100 scale where 0 is no effect and 100 is complete control, read-out: Barnyardgrass plant response rating
Procedure, shortened: as §1

[3] = tested on: giant foxtail (Setaria faberii); experiment: Test A preemergence; settings: Setaria faberi, pre-emergence, 240 h, 0 to 100 scale where 0 is no effect and 100 is complete control, read-out: Foxtail, Giant plant response rating
Procedure, shortened: as §1

[4] = tested on: pigweed (Amaranthus retroflexus); experiment: Test A preemergence; settings: Amaranthus retroflexus, pre-emergence, 240 h, 0 to 100 scale where 0 is no effect and 100 is complete control, read-out: Pigweed plant response rating
[5] = tested on: ragweed (common ragweed, Ambrosia elatior); experiment: Test A preemergence; settings: Ambrosia artemisiifolia, pre-emergence, 240 h, 0 to 100 scale where 0 is no effect and 100 is complete control, read-out: Ragweed plant response rating
Procedure, shortened: as §1

[6] = tested on: ryegrass, Italian (Italian ryegrass, Lolium multiflorum); experiment: Test A preemergence; settings: Lolium multiflorum, pre-emergence, 240 h, 0 to 100 scale where 0 is no effect and 100 is complete control, read-out: Ryegrass, Italian plant response rating
Procedure, shortened: as §1

[7] = tested on: Galium (catchweed bedstraw, Galium aparine); experiment: Test A postemergence; settings: Galium, post-emergence, 240 h
Procedure, shortened: as §1

Kochia (Kochia scoparia) [8] = experiment: Test A postemergence; settings: Bassia scoparia, post-emergence, 240 h
Procedure, shortened: as §1

[9] = tested on: barnyardgrass (Echinochloa crus-galli); experiment: Test A postemergence; settings: Echinochloa crus-galli, post-emergence, 240 h
Procedure, shortened: as §1

[10] = tested on: blackgrass (Alopecurus myosuroides); experiment: Test A postemergence; settings: Alopecurus myosuroides, post-emergence, 240 h
Procedure, shortened: as §1

corn (Zea mays) = experiment: Test A postemergence; settings: Zea mays, post-emergence, 240 h
Procedure, shortened: as §1

[11] = tested on: giant foxtail (Setaria faberii); experiment: Test A postemergence; settings: Setaria faberi, post-emergence, 240 h
Procedure, shortened: as §1

[12] = tested on: pigweed (Amaranthus retroflexus); experiment: Test A postemergence; settings: Amaranthus retroflexus, post-emergence, 240 h
Procedure, shortened: as §1

[13] = tested on: ragweed (common ragweed, Ambrosia elatior); experiment: Test A postemergence; settings: Ambrosia artemisiifolia, post-emergence, 240 h
Procedure, shortened: as §1

[14] = tested on: ryegrass, Italian (Italian ryegrass, Lolium multiflorum); experiment: Test A postemergence; settings: Lolium multiflorum, post-emergence, 240 h
Procedure, shortened: as §1

[15] = tested on: wheat (Triticum aestivum); experiment: Test A postemergence; settings: Triticum aestivum, post-emergence, 240 h
Procedure, shortened: as §1

[16] = tested on: barnyardgrass (Echinochloa crus-galli); experiment: Test B flooded paddy test; settings: Echinochloa crus-galli, 250 g ai/ha, Flood; 0 to 100 scale where 0 is no effect and 100 is complete control; read-out: Barnyardgrass plant response rating
Procedure, shortened: (§2)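 Response scored visually against untreated controls, 0 = no effect and 100 = complete control, 13–15 d after treatment in the greenhouse. Compounds added to paddy water held 3 cm above soil surface. Treatment given at 2-leaf stage.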

[17] = tested on: ducksalad (Heteranthera limosa); experiment: Test B flooded paddy test; settings: Heteranthera limosa, 250 g ai/ha, Flood; 0 to 100 scale where 0 is no effect and 100 is complete control; read-out: Ducksalad plant response rating
Procedure, shortened: as §2

rice (Oryra sativa) = experiment: Test B flooded paddy test; settings: Oryza sativa, 250 g ai/ha, Flood; 0 to 100 scale where 0 is no effect and 100 is complete control; read-out: Rice plant response rating
Procedure, shortened: as §2

[18] = tested on: sedge, umbrella (small-flower umbrella sedge, Cyperus difformis); experiment: Test B flooded paddy test; settings: Cyperus difformis, 250 g ai/ha, Flood; 0 to 100 scale where 0 is no effect and 100 is complete control; read-out: Sedge, Umbrella plant response rating
Procedure, shortened: as §2

[19] = 125 g ai/ha, preemergence, approx. 10 d

Question: With `CN1C[C@H](c2csc3c2CCC3)[C@@H](C(=O)Nc2ccc(F)c(F)c2F)C1=O` [Compound 1081] as the compound, how does the pest or weed control at 31 g/ha (Kochia (Kochia scoparia) [1]; 31 g ai/ha, Preemergence) read?
Answer: 20%

Question: And the pest or weed control at 125 g/ha (Kochia (Kochia scoparia) [1]; [19])?
Answer: 30%

Question: And the pest or weed control at 31 g/ha ([2]; 31 g ai/ha, Preemergence)?
Answer: 10%

Question: What about the pest or weed control at 125 g/ha [2, 19] of the same compound?
Answer: 90%

Question: And the pest or weed control at 31 g/ha ([3]; 31 g ai/ha, Preemergence)?
Answer: 100%

Question: What about the pest or weed control at 125 g/ha [3, 19] of the same compound?
Answer: 100%

Question: What about the pest or weed control at 31 g/ha ([4]; 31 g ai/ha, Preemergence) of the same compound?
Answer: 0%

Question: And the pest or weed control at 125 g/ha [4, 19]?
Answer: 0%

Question: And the pest or weed control at 31 g/ha ([5]; 31 g ai/ha, Preemergence)?
Answer: 0%

Question: What about the pest or weed control at 125 g/ha [5, 19] of the same compound?
Answer: 0%

Question: What about the pest or weed control at 31 g/ha ([6]; 31 g ai/ha, Preemergence) of the same compound?
Answer: 0%

Question: What about the pest or weed control at 125 g/ha [6, 19] of the same compound?
Answer: 0%

Question: And the pest or weed control at 125 g/ha ([7]; 125 g ai/ha, postemergence, visual injury on 0 to 100 scale (0 no effect, 100 complete control), approx. 10 d, read-out: Galium plant response rating)?
Answer: 20%

Question: And the pest or weed control at 31 g/ha ([7]; Postemergence, 31 g ai/ha, visual injury after approx. 10 d, 0 to 100 scale, 0 no effect, 100 complete control, read-out: Plant response rating, Galium)?
Answer: 0%

Question: What about the pest or weed control at 125 g/ha (Kochia (Kochia scoparia) [8]; 125 g ai/ha, postemergence, visual injury on 0 to 100 scale (0 no effect, 100 complete control), approx. 10 d, read-out: Kochia plant response rating) of the same compound?
Answer: 0%

Question: What about the pest or weed control at 31 g/ha (Kochia (Kochia scoparia) [8]; Postemergence, 31 g ai/ha, visual injury after approx. 10 d, 0 to 100 scale, 0 no effect, 100 complete control, read-out: Plant response rating, Kochia) of the same compound?
Answer: 0%

Question: What about the pest or weed control at 125 g/ha ([9]; 125 g ai/ha, postemergence, visual injury on 0 to 100 scale (0 no effect, 100 complete control), approx. 10 d, read-out: Barnyardgrass plant response rating) of the same compound?
Answer: 90%

Question: What about the pest or weed control at 31 g/ha ([9]; Postemergence, 31 g ai/ha, visual injury after approx. 10 d, 0 to 100 scale, 0 no effect, 100 complete control, read-out: Plant response rating, Barnyardgrass) of the same compound?
Answer: 30%

Question: And the pest or weed control at 125 g/ha ([10]; 125 g ai/ha, postemergence, visual injury on 0 to 100 scale (0 no effect, 100 complete control), approx. 10 d, read-out: Blackgrass plant response rating)?
Answer: 0%

Question: What about the pest or weed control at 31 g/ha ([10]; Postemergence, 31 g ai/ha, visual injury after approx. 10 d, 0 to 100 scale, 0 no effect, 100 complete control, read-out: Plant response rating, Blackgrass) of the same compound?
Answer: 0%

Question: And the plant injury at 125 g/ha (corn (Zea mays); 125 g ai/ha, postemergence, visual injury on 0 to 100 scale (0 no effect, 100 complete control), approx. 10 d, read-out: Corn plant response rating)?
Answer: 20%

Question: And the Corn plant response rating (crop injury, 0 = no effect, 100 = complete kill) at 31 g/ha (corn (Zea mays); Postemergence, 31 g ai/ha, visual injury after approx. 10 d, 0 to 100 scale, 0 no effect, 100 complete control)?
Answer: 0%

Question: What about the pest or weed control at 125 g/ha ([11]; 125 g ai/ha, postemergence, visual injury on 0 to 100 scale (0 no effect, 100 complete control), approx. 10 d, read-out: Foxtail, Giant plant response rating) of the same compound?
Answer: 80%

Question: And the pest or weed control at 31 g/ha ([11]; Postemergence, 31 g ai/ha, visual injury after approx. 10 d, 0 to 100 scale, 0 no effect, 100 complete control, read-out: Plant response rating, Foxtail, Giant)?
Answer: 10%

Question: What about the pest or weed control at 125 g/ha ([12]; 125 g ai/ha, postemergence, visual injury on 0 to 100 scale (0 no effect, 100 complete control), approx. 10 d, read-out: Pigweed plant response rating) of the same compound?
Answer: 0%

Question: And the pest or weed control at 31 g/ha ([12]; Postemergence, 31 g ai/ha, visual injury after approx. 10 d, 0 to 100 scale, 0 no effect, 100 complete control, read-out: Plant response rating, Pigweed)?
Answer: 0%

Question: What about the pest or weed control at 125 g/ha ([13]; 125 g ai/ha, postemergence, visual injury on 0 to 100 scale (0 no effect, 100 complete control), approx. 10 d, read-out: Ragweed plant response rating) of the same compound?
Answer: 0%

Question: What about the pest or weed control at 31 g/ha ([13]; Postemergence, 31 g ai/ha, visual injury after approx. 10 d, 0 to 100 scale, 0 no effect, 100 complete control, read-out: Plant response rating, Ragweed) of the same compound?
Answer: 0%

Question: And the pest or weed control at 125 g/ha ([14]; 125 g ai/ha, postemergence, visual injury on 0 to 100 scale (0 no effect, 100 complete control), approx. 10 d, read-out: Ryegrass, Italian plant response rating)?
Answer: 0%

Question: And the pest or weed control at 31 g/ha ([14]; Postemergence, 31 g ai/ha, visual injury after approx. 10 d, 0 to 100 scale, 0 no effect, 100 complete control, read-out: Plant response rating, Ryegrass, Italian)?
Answer: 0%

Question: And the plant injury at 125 g/ha ([15]; 125 g ai/ha, postemergence, visual injury on 0 to 100 scale (0 no effect, 100 complete control), approx. 10 d, read-out: Wheat plant response rating)?
Answer: 20%

Question: What about the plant injury at 31 g/ha ([15]; Postemergence, 31 g ai/ha, visual injury after approx. 10 d, 0 to 100 scale, 0 no effect, 100 complete control, read-out: Plant response rating, Wheat) of the same compound?
Answer: 0%

Question: And the pest or weed control at 250 g/ha [16]?
Answer: 90%

Question: What about the pest or weed control at 250 g/ha [17] of the same compound?
Answer: 80%

Question: What about the pest or weed control at 250 g/ha (rice (Oryra sativa)) of the same compound?
Answer: 40%

Question: And the pest or weed control at 250 g/ha [18]?
Answer: 0%
